Test results taken from patent US6479435B1, “Diaryl ethers and processes for their preparation and herbicidal and desiccant compositions containing them” (ISK Americas Incorporated, priority 1997, dated 2002).

What was measured:
Format in all cases: in vivo
[1] = system: Johnsongrass (Sorghum halepense, SORHA); assay: Pre-emerge greenhouse herbicide test, phytotoxicity rating; settings: 14 days after application, rating scale 0-100
Summary of the method: (§1)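 Seeds sown in sandy loam one day before track-sprayer application of acetone solutions at 125–1000 g ai/ha (187 l/ha), then surface-watered to incorporate and bottom-watered. Injury scored visually at 14 days on a 0–100 scale (0 no damage, 100 complete death).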

[2] = system: barnyardgrass (Echinochloa crusgalli, ECHCG); assay: as above; settings: 14 days after application, rating scale 0-100
Summary of the method: as §1

[3] = system: common ragweed (Ambrosia artemisiifolia L., AMBEL); assay: as above; settings: 14 days after application, rating scale 0-100
Summary of the method: as §1

[4] = system: green foxtail (Setaria viridis, SETVI); assay: as above; settings: 14 days after application, rating scale 0-100
Summary of the method: as §1

[5] = system: ivyleaf morningglory (Ipomoea hederacea, IPOHE); assay: as above; settings: 14 days after application, rating scale 0-100
Summary of the method: as §1

[6] = system: lambsquarters (Chenopodium album, CHEAL); assay: as above; settings: 14 days after application, rating scale 0-100
Summary of the method: as §1

[7] = system: large crabgrass (Digitaria sanguinalis, DIGSA); assay: as above; settings: 14 days after application, rating scale 0-100
Summary of the method: as §1

[8] = system: redroot pigweed (Amaranthus retroflexus, AMARE); assay: as above; settings: 14 days after application, rating scale 0-100
Summary of the method: as §1

[9] = system: sicklepod (Cassia obtusifolia, CASOB); assay: as above; settings: 14 days after application, rating scale 0-100
Summary of the method: as §1

[10] = system: velvetleaf (Abutilon theophrasti, ABUTH); assay: as above; settings: 14 days after application, rating scale 0-100
Summary of the method: as §1

[11] = system: field corn (Zea mays L., var. Dekalb 535, CORN); assay: Pre-emerge greenhouse test, crop damage rating; settings: 14 days after application, rating scale 0-100
Summary of the method: as §1

[12] = system: upland rice (Oryza sp., var.Tebonnet, RICE); assay: Pre-emerge greenhouse test, crop damage rating; settings: 14 days after application, rating scale 0-100
Summary of the method: as §1

[13] = system: soybean (Glycine max L., var. Pella 86, SOY); assay: Pre-emerge greenhouse test, crop damage rating; settings: 14 days after application, rating scale 0-100
Summary of the method: as §1

[14] = system: common ragweed (Ambrosia artemisiifolia L., AMBEL); assay: Post-emerge greenhouse herbicide test, phytotoxicity rating; settings: 14 days after application
Summary of the method: (§2)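 Plants at the 2-3 leaf stage, sown 8-21 days earlier, were track-sprayed post-emergence with compound in acetone plus 0.25% v/v non-ionic surfactant at 63-1000 g ai/ha (187 l/ha). Damage was rated at 14 days on a 0-100 scale (0 none, 100 all plants dead), for both crop injury and weed control.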

[15] = system: Johnsongrass (Sorghum halepense, SORHA); assay: as above; settings: 14 days after application
Summary of the method: as §2

[16] = system: barnyardgrass (Echinochloa crusgalli, ECHCG); assay: as above; settings: 14 days after application
Summary of the method: as §2

[17] = system: green foxtail (Setaria viridis, SETVI); assay: as above; settings: 14 days after application
Summary of the method: as §2

[18] = system: ivyleaf morningglory (Ipomoea hederacea, IPOHE); assay: as above; settings: 14 days after application
Summary of the method: as §2

[19] = system: lambsquarters (Chenopodium album, CHEAL); assay: as above; settings: 14 days after application
Summary of the method: as §2

[20] = system: large crabgrass (Digitaria sanguinalis, DIGSA); assay: as above; settings: 14 days after application
Summary of the method: as §2

[21] = system: redroot pigweed (Amaranthus retroflexus, AMARE); assay: as above; settings: 14 days after application
Summary of the method: as §2

[22] = system: velvetleaf (Abutilon theophrasti, ABUTH); assay: as above; settings: 14 days after application
Summary of the method: as §2

[23] = system: field corn (Zea mays L., var. Dekalb 535, CORN); assay: Post-emerge greenhouse test, crop damage rating; settings: 14 days after application
Summary of the method: as §2

[24] = system: upland rice (Oryza sp., var.Tebonnet, RICE); assay: Post-emerge greenhouse test, crop damage rating; settings: 14 days after application
Summary of the method: as §2

[25] = system: soybean (Glycine max L., var. Pella 86, SOY); assay: Post-emerge greenhouse test, crop damage rating; settings: 14 days after application
Summary of the method: as §2

With Cn1nc(-c2cc(Oc3ncccc3C(F)(F)F)c(Cl)cc2F)c(Cl)c1C(F)(F)F [Compound 1-2] the “phytotoxicity rating SORHA” value ([1]; 125 g ai/ha) was 30, the “phytotoxicity rating SORHA” value ([1]; 500 g ai/ha) was 50 and the “phytotoxicity rating ECHCG” value ([2]; 125 g ai/ha) was 20. The “phytotoxicity rating ECHCG” value ([2]; 500 g ai/ha) was 50, the “phytotoxicity rating AMBEL” value ([3]; 125 g ai/ha) was 80 and the “phytotoxicity rating AMBEL” value ([3]; 500 g ai/ha) was 80. The “phytotoxicity rating SETVI” value ([4]; 125 g ai/ha) was 90, the “phytotoxicity rating SETVI” value ([4]; 500 g ai/ha) was 99 and the “phytotoxicity rating IPOHE” value ([5]; 125 g ai/ha) was 0. The “phytotoxicity rating IPOHE” value ([5]; 500 g ai/ha) was 60, the “phytotoxicity rating CHEAL” value ([6]; 125 g ai/ha) was 50 and the “phytotoxicity rating CHEAL” value ([6]; 500 g ai/ha) was 99. For the same molecule, the “phytotoxicity rating DIGSA” value ([7]; 125 g ai/ha) was 40, the “phytotoxicity rating DIGSA” value ([7]; 500 g ai/ha) was 95 and the “phytotoxicity rating AMARE” value ([8]; 125 g ai/ha) was 80. The “phytotoxicity rating AMARE” value ([8]; 500 g ai/ha) was 100, the “phytotoxicity rating CASOB” value ([9]; 125 g ai/ha) was 80 and the “phytotoxicity rating CASOB” value ([9]; 500 g ai/ha) was 0. For the same molecule, the “phytotoxicity rating ABUTH” value ([10]; 125 g ai/ha) was 0, the “phytotoxicity rating ABUTH” value ([10]; 500 g ai/ha) was 70 and the “crop damage rating CORN” value ([11]; 125 g ai/ha) was 10. For the same molecule, the “crop damage rating CORN” value ([11]; 500 g ai/ha) was 90, the “crop damage rating RICE” value ([12]; 125 g ai/ha) was 30 and the “crop damage rating RICE” value ([12]; 500 g ai/ha) was 40. For the same molecule, the “crop damage rating SOY” value ([13]; 125 g ai/ha) was 0, the “crop damage rating SOY” value ([13]; 500 g ai/ha) was 10 and the “AMBEL phytotoxicity rating (0-100)” value ([14]; 63 g al/ha) was 30. For the same molecule, the “AMBEL phytotoxicity rating (0-100)” value ([14]; 500 g al/ha) was 90, the “SORHA phytotoxicity rating (0-100)” value ([15]; 63 g al/ha) was 20 and the “SORHA phytotoxicity rating (0-100)” value ([15]; 500 g al/ha) was 40. The “ECHCG phytotoxicity rating (0-100)” value ([16]; 63 g al/ha) was 0, the “ECHCG phytotoxicity rating (0-100)” value ([16]; 500 g al/ha) was 80 and the “SETVI phytotoxicity rating (0-100)” value ([17]; 63 g al/ha) was 0. For the same molecule, the “SETVI phytotoxicity rating (0-100)” value ([17]; 500 g al/ha) was 40, the “IPOHE phytotoxicity rating (0-100)” value ([18]; 63 g al/ha) was 30 and the “IPOHE phytotoxicity rating (0-100)” value ([18]; 500 g al/ha) was 90. The “CHEAL phytotoxicity rating (0-100)” value ([19]; 63 g al/ha) was 70, the “CHEAL phytotoxicity rating (0-100)” value ([19]; 500 g al/ha) was 100 and the “DIGSA phytotoxicity rating (0-100)” value ([20]; 63 g al/ha) was 0. The “DIGSA phytotoxicity rating (0-100)” value ([20]; 500 g al/ha) was 50, the “AMARE phytotoxicity rating (0-100)” value ([21]; 63 g al/ha) was 80 and the “AMARE phytotoxicity rating (0-100)” value ([21]; 500 g al/ha) was 100. The “ABUTH phytotoxicity rating (0-100)” value ([22]; 63 g al/ha) was 30, the “ABUTH phytotoxicity rating (0-100)” value ([22]; 500 g al/ha) was 100 and the “CORN crop damage rating (0-100)” value ([23]; 63 g al/ha) was 0. For the same molecule, the “CORN crop damage rating (0-100)” value ([23]; 500 g al/ha) was 10, the “RICE crop damage rating (0-100)” value ([24]; 63 g al/ha) was 0 and the “RICE crop damage rating (0-100)” value ([24]; 500 g al/ha) was 0. The “SOY crop damage rating (0-100)” value ([25]; 63 g al/ha) was 10 and the “SOY crop damage rating (0-100)” value ([25]; 500 g al/ha) was 50.

O=c1n(CCCF)nnn1-c1cc(Oc2ncccc2[N+](=O)[O-])c(Cl)cc1Cl [Compound 6-3] was tested, and the “phytotoxicity rating SORHA” value ([1]; 125 g ai/ha) was 30, the “phytotoxicity rating SORHA” value ([1]; 500 g ai/ha) was 0 and the “phytotoxicity rating ECHCG” value ([2]; 125 g ai/ha) was 60. For the same molecule, the “phytotoxicity rating ECHCG” value ([2]; 500 g ai/ha) was 0, the “phytotoxicity rating AMBEL” value ([3]; 125 g ai/ha) was 100 and the “phytotoxicity rating AMBEL” value ([3]; 500 g ai/ha) was 40. For the same molecule, the “phytotoxicity rating SETVI” value ([4]; 125 g ai/ha) was 99, the “phytotoxicity rating SETVI” value ([4]; 500 g ai/ha) was 70 and the “phytotoxicity rating IPOHE” value ([5]; 125 g ai/ha) was 0. The “phytotoxicity rating IPOHE” value ([5]; 500 g ai/ha) was 20, the “phytotoxicity rating CHEAL” value ([6]; 125 g ai/ha) was 0 and the “phytotoxicity rating CHEAL” value ([6]; 500 g ai/ha) was 90. The “phytotoxicity rating DIGSA” value ([7]; 125 g ai/ha) was 10, the “phytotoxicity rating DIGSA” value ([7]; 500 g ai/ha) was 50 and the “phytotoxicity rating AMARE” value ([8]; 125 g ai/ha) was 0. For the same molecule, the “phytotoxicity rating AMARE” value ([8]; 500 g ai/ha) was 90, the “phytotoxicity rating CASOB” value ([9]; 125 g ai/ha) was 30 and the “phytotoxicity rating CASOB” value ([9]; 500 g ai/ha) was 40. For the same molecule, the “phytotoxicity rating ABUTH” value ([10]; 125 g ai/ha) was 40, the “phytotoxicity rating ABUTH” value ([10]; 500 g ai/ha) was 30 and the “crop damage rating CORN” value ([11]; 125 g ai/ha) was 30. For the same molecule, the “crop damage rating CORN” value ([11]; 500 g ai/ha) was 10, the “crop damage rating RICE” value ([12]; 125 g ai/ha) was 20 and the “crop damage rating RICE” value ([12]; 500 g ai/ha) was 20. The “crop damage rating SOY” value ([13]; 125 g ai/ha) was 0, the “crop damage rating SOY” value ([13]; 500 g ai/ha) was 0 and the “AMBEL phytotoxicity rating (0-100)” value ([14]; 63 g al/ha) was 0. For the same molecule, the “AMBEL phytotoxicity rating (0-100)” value ([14]; 500 g al/ha) was 0, the “SORHA phytotoxicity rating (0-100)” value ([15]; 63 g al/ha) was 0 and the “SORHA phytotoxicity rating (0-100)” value ([15]; 500 g al/ha) was 30. The “ECHCG phytotoxicity rating (0-100)” value ([16]; 63 g al/ha) was 0, the “ECHCG phytotoxicity rating (0-100)” value ([16]; 500 g al/ha) was 20 and the “SETVI phytotoxicity rating (0-100)” value ([17]; 63 g al/ha) was 0. The “SETVI phytotoxicity rating (0-100)” value ([17]; 500 g al/ha) was 30, the “IPOHE phytotoxicity rating (0-100)” value ([18]; 63 g al/ha) was 20 and the “IPOHE phytotoxicity rating (0-100)” value ([18]; 500 g al/ha) was 70. For the same molecule, the “CHEAL phytotoxicity rating (0-100)” value ([19]; 63 g al/ha) was 0, the “CHEAL phytotoxicity rating (0-100)” value ([19]; 500 g al/ha) was 80 and the “DIGSA phytotoxicity rating (0-100)” value ([20]; 63 g al/ha) was 0. For the same molecule, the “DIGSA phytotoxicity rating (0-100)” value ([20]; 500 g al/ha) was 0, the “AMARE phytotoxicity rating (0-100)” value ([21]; 63 g al/ha) was 20 and the “AMARE phytotoxicity rating (0-100)” value ([21]; 500 g al/ha) was 80. For the same molecule, the “ABUTH phytotoxicity rating (0-100)” value ([22]; 63 g al/ha) was 0, the “ABUTH phytotoxicity rating (0-100)” value ([22]; 500 g al/ha) was 20 and the “CORN crop damage rating (0-100)” value ([23]; 63 g al/ha) was 0. For the same molecule, the “CORN crop damage rating (0-100)” value ([23]; 500 g al/ha) was 0, the “RICE crop damage rating (0-100)” value ([24]; 63 g al/ha) was 0 and the “RICE crop damage rating (0-100)” value ([24]; 500 g al/ha) was 40. For the same molecule, the “SOY crop damage rating (0-100)” value ([25]; 63 g al/ha) was 0 and the “SOY crop damage rating (0-100)” value ([25]; 500 g al/ha) was 30.
